Columns and labels:
[1] = tested on: nigrostriatal-lesioned rats; assay: Nigrostriatal-lesion-induced rotational behavior following amphetamine administration; type: in vivo; conditions: relative to Vehicle+Amphetamine, drug 2 amphetamine SC
Description: Table 4, below, indicates the changes in rotational behavior in nigrostriatal-lesioned rats treated with various alpha-2B receptor agonists and the psychostimulant amphetamine. Drug 1 was administered 15 minutes before amphetamine, and 10 minutes post-amphetamine, the animals were placed into the rotometer for 30 or 60 minutes. “% decrease rotations” indicates the percentage decrease in total rotations relative to the Vehicle+Amphetamine group. ^⋄ indicates significant difference (P<0.05) relative to Vehicle+Amphetamine treated animals. * indicates significant difference (P<0.05) relative to Vehicle+Vehicle treated animals.
Amphetamine-induced rotational behavior. Pre-Apomorphine-screened (rotated) rats (with lesions ≧95% DA cell loss) were purchased from Charles Rivers Laboratories. Animals were given ˜4 days to acclimate prior to testing. All animals weighted 250-300 g at the beginning of the study. Animals were treated with various combinations of vehicle or alpha-2B receptor agonist and amphetamine.
Vehicle or alpha-2B receptor agonist was administered (p.o.) 15 minutes before amphetamine (2 mg/kg s.c.). Rotational behavior was assessed 15 minutes post-amphetamine administration and was monitored for 60 minutes using a Rotometer system from San Diego Instruments (San Diego, Calif.).
(§1) For i.p. administration, the compounds are formulated in H2O with 0.5% DMSO and given in a volume of 1 ml/kg body weight by injecting into the intraperitoneal cavity. For p.o. administration, the compounds are formulated in H2O with 0.5% DMSO and given in a volume of 2 ml/kg body weight using a 25-gauge, 1.5 inch gavage needle that is slowly inserted through the esophagus into the stomach.

alpha-2A receptor = biological target: T1, alpha-2A receptor (Homo sapiens, UniProt P08913); assay: Alpha-2A receptor activity (efficacy relative to brimonidine); type: cell-based; conditions: in words; b7: lacks significant activity = less than 40% of the efficacy of brimonidine at alpha-2A
T1 sequence (P08913 1-465): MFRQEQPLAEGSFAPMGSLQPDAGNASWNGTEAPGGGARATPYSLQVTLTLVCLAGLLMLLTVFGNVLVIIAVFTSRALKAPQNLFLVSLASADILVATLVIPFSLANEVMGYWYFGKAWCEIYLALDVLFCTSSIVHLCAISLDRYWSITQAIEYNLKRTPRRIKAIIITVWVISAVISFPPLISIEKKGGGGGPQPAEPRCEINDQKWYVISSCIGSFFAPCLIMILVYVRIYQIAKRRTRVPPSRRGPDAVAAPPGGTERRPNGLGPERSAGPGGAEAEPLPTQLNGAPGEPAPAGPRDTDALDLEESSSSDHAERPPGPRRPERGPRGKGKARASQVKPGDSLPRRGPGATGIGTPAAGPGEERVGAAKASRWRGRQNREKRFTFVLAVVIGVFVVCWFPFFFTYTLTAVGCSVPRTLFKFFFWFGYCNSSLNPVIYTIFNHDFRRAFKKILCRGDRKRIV
Description: The methods of the present invention use alpha-2 agonists lacking significant activity at the alpha-2A receptor subtype. An agonist lacks significant alpha-2A receptor activity if the agonist has less than 40% of the efficacy of brimonidine at the alpha-2A receptor subtype. Compounds of the invention include, therefore, alpha-2B receptor agonists lacking significant alpha-2A activity; alpha 2B/2C receptor agonists lacking significant alpha-2A activity; and alpha-2C receptor agonists lacking significant alpha-2A activity.
Efficacy, also known as intrinsic activity, is a measure of maximal receptor activation achieved by a compound and can be determined using any accepted assay of alpha-adrenergic receptor activation, such as a cAMP or Receptor Selection and Amplification Technology (RSAT). Efficacy is represented as a ratio or percentage of the maximal effect of the drug to the maximal effect of a standard agonist for each receptor subtype. Brimonidine, itself an alpha-2B receptor agonist (it is has 100% the efficacy of brimonidine at the alpha-2B adrenergic receptor), is used as the standard agonist for the alpha-2B adrenergic receptors.
Agonist activity can be characterized using any of a variety of routine assays, including, for example, Receptor Selection and Amplification Technology (RSAT) assays (Messier et al., Pharmacol. Toxicol. 76:308-11 (1995); cyclic AMP assays (Shimizu et al., J. Neurochem. 16:1609-1619 (1969)); and cytosensor microphysiometry assays (Neve et al., J. Biol. Chem. 267:25748-25753 (1992)). Such assays generally are performed using cells that naturally express only a single alpha-adrenergic receptor subtype, or using transfected cells expressing a single recombinant alpha-adrenergic receptor subtype. The adrenergic receptor can be a human receptor or homolog of a human receptor having a similar pharmacology.
The RSAT assay measures receptor-mediated loss of contact inhibition resulting in selective proliferation of receptor-containing cells in a mixed population of confluent cells. The increase in cell number is assessed with an appropriate detectable marker gene such as beta-galactosidase, if desired, in a high throughput or ultra high throughput assay format. Receptors that activate the G protein, Gq, elicit the proliferative response. Alpha-adrenergic receptors, which normally couple to Gi, activate the RSAT response when coexpressed with a hybrid Gq protein containing a Gi receptor recognition domain, designated Gq/i5. Conklin et al., Nature 363:274-6 (1993)).
As an example, an RSAT assay can be performed essentially as follows. NIH-3T3 cells are plated at a density of 2×10^6 cells in 15 cm dishes and maintained in Dulbecco's modified Eagle's medium supplemented with 10% calf serum. One day later, cells are cotransfected by calcium phosphate precipitation with mammalian expression plasmids encoding p-SV-β-galactosidase (5-10 μg), receptor (1-2 μg) and G protein (1-2 μg). Carrier DNA, for example 40 μg salmon sperm DNA, also can be included to increase transfection efficiency. Fresh media is added on the following day; one to two days later, cells are harvested and frozen in 50 assay aliquots. Transfected cells are thawed, and 100 μl of cells added to 100 μl aliquots of compound to be tested, with various concentrations assayed in triplicate, for example, in 96-well plates. Incubation continues for 72 to 96 hours at 37° C. After washing with phosphate-buffered saline, β-galactosidase activity is determined by adding 200 μl of chromogenic substrate (3.5 mM O-nitrophenyl-β-D-galactopyranoside/0.5% NP-40 in phosphate buffered saline), incubating overnight at 30° C., and measuring optical density at 420 nm. The absorbancy is a measure of enzyme activity, which depends on cell number and reflects receptor-mediated cell proliferation. The EC50 and maximal effect (i.e., efficacy) of each drug at each receptor is determined.

mice = assay: Amphetamine-induced hyperlocomotion (open field); type: in vivo; conditions: drug 2 amphetamine SC
Description: Table 2, below, indicates the locomotor responses of mice treated with various combinations of alpha-2B receptor agonists and the psychostimulant amphetamine. Drug 1 was administered 30 minutes after the animal was placed in the open field. Drug 2 was administered subcutaneously (SC) at 45 minutes after the animal was placed in the open field (15 minutes after drug 1). AUC indicates the total amount of locomotor activity after administration of drug 2. “% decrease activity” indicates the percentage decrease in total activity relative to the Vehicle+Amphetamine group. ° indicates significant difference (P<0.05) relative to Vehicle+Amphetamine treated animals. * indicates significant difference (P<0.05) relative to Vehicle+Vehicle treated animals.
Amphetamine- or cocaine-induced hyperactivity. Mice were placed in an open field apparatus (FlexField, San Diego Instruments, San Diego, Calif.). After 30 minutes of habituation, they received a vehicle or haloperidol injection or injection of alpha-2B receptor agonist followed by an injection of amphetamine (2 mg/kg, s.c.) or cocaine (10 mg/kg, i.p.) at minute 45. Their activity levels were subsequently measured for another 1 hour post-injection. Total activity over each 5 minute bin (21 total bins) was added to establish activity curve over the 105 minute testing.
as §1

| SMILES | % DECREASE ROTATIONS ([1]; drug 1 0.1 mg/kg PO) [% ^⋄ *] | % DECREASE ROTATIONS ([1]; drug 1 1 mg/kg PO) [% ^⋄ *] | alpha-2A receptor activity (alpha-2A receptor) | % DECREASE ACTIVITY REL TO VEH + AMPH (mice; drug 1 0.01 mg/kg PO) [% *] | TOTAL ACTIVITY POST-AMPHETAMINE (AUC) (mice; drug 1 0.01 mg/kg PO) | % DECREASE ACTIVITY REL TO VEH + AMPH (mice; drug 1 0.03 mg/kg PO) [% ^⋄] | TOTAL ACTIVITY POST-AMPHETAMINE (AUC) (mice; drug 1 0.03 mg/kg PO) | % DECREASE ACTIVITY REL TO VEH + AMPH (mice; drug 1 0.1 mg/kg PO) [% ^⋄ *] | TOTAL ACTIVITY POST-AMPHETAMINE (AUC) (mice; drug 1 0.1 mg/kg PO) | % DECREASE ACTIVITY REL TO VEH + AMPH (mice; drug 1 1 mg/kg PO) [% ^⋄] | TOTAL ACTIVITY POST-AMPHETAMINE (AUC) (mice; drug 1 1 mg/kg PO) | % DECREASE ROTATIONS ([1]; drug 1 0.03 mg/kg PO) [% * ^] | % DECREASE ACTIVITY REL TO VEH + AMPH (mice; drug 1 0.03 mg/kg IP) [% ^⋄] | TOTAL ACTIVITY POST-AMPHETAMINE (AUC) (mice; drug 1 0.03 mg/kg IP) | % DECREASE ACTIVITY REL TO VEH + AMPH (mice; drug 1 1 mg/kg IP) [% ^⋄] | TOTAL ACTIVITY POST-AMPHETAMINE (AUC) (mice; drug 1 1 mg/kg IP) | % DECREASE ACTIVITY REL TO VEH + AMPH (mice; drug 1 0.2 mg/kg IP) [% ^⋄ *] | TOTAL ACTIVITY POST-AMPHETAMINE (AUC) (mice; drug 1 0.2 mg/kg IP) |
| --- | --- | --- | --- | --- | --- | --- | --- | --- | --- | --- | --- | --- | --- | --- | --- | --- | --- | --- |
| S=c1[nH]cc(CC2CC=CC2)[nH]1 [Compound D] | 51 | 60 | lack significant alpha-2A receptor activity | 14 | 10664.0 ± 786.2 | 51 | 5987.5 ± 1369. | 43 | 6992.5 ± 693.1 | 62 | 4650.0 ± 628.9 | – | – | – | – | – | – | – |
| c1ccc2c(c1)CC[C@@H](Cc1c[nH]cn1)C2 [Compound B] | – | – | lack significant alpha-2A receptor activity | – | – | – | – | – | – | – | – | 29 | 68 | 3940.5 ± 573.7 | 64 | 4462.0 ± 957.5 | – | – |
| O=C(CCCN1CCC(O)(c2ccc(Cl)cc2)CC1)c1ccc(F)cc1 [Haloperidol, reference compound] | – | – | – | – | – | – | – | – | – | – | – | – | – | – | – | – | 91 | 1123.2 ± 280.1 |

Reference: patent US20110160265A1, “METHOD OF TREATING MOTOR DISORDERS WITH ALPHA-2B ADRENERGIC RECEPTOR AGONISTS” (priority 2007, published 2011)
